According to ChEMBL document CHEMBL4602695, “Discovery and SARs of 5-Chloro-N4-phenyl-N2-(pyridin-2-yl)pyrimidine-2,4-diamine Derivatives as Oral Available and Dual CDK 6 and 9 Inhibitors with Potent Antitumor Activity” (J Med Chem, 2020):
In brackets after ≈: the same amount, converted by molar mass.

Columns and labels:
MDA-MB-231 [1] = assay: Cell cycle arrest in human MDA-MB-231 cells assessed as accumulation at S phase at 8 uM measured after 48 hrs by propidium iodide staining based flow cytometry (reference value: 26.45%); assay type: functional
MDA-MB-231 [2] = assay: Cell cycle arrest in human MDA-MB-231 cells assessed as accumulation at S phase at 12 uM measured after 48 hrs by propidium iodide staining based flow cytometry (reference value: 26.45%); assay type: functional
MDA-MB-231 [3] = assay: Induction of apoptosis in human MDA-MB-231 cells assessed as viable cells at 4 uM measured after 48 hrs by Annexin V-FITC/propidium iodide staining based flow cytometry (95.8%); assay type: functional; conditions: MDA-MB-231, 48 h, read-out: Activity
MDA-MB-231 [4] = assay: Induction of apoptosis in human MDA-MB-231 cells assessed as necrotic cells at 4 uM measured after 48 hrs by Annexin V-FITC/propidium iodide staining based flow cytometry (0.498%); assay type: functional
MDA-MB-231 [5] = assay: Induction of apoptosis in human MDA-MB-231 cells assessed as late apoptotic cells at 8 uM measured after 48 hrs by Annexin V-FITC/propidium iodide staining based flow cytometry (2.78%); assay type: functional
MDA-MB-231 [6] = assay: Induction of apoptosis in human MDA-MB-231 cells assessed as necrotic cells at 8 uM measured after 48 hrs by Annexin V-FITC/propidium iodide staining based flow cytometry (0.498%); assay type: functional
MDA-MB-231 [7] = assay: Induction of apoptosis in human MDA-MB-231 cells assessed as viable cells at 12 uM measured after 48 hrs by Annexin V-FITC/propidium iodide staining based flow cytometry (95.8%); assay type: functional; conditions: MDA-MB-231, 48 h, read-out: Activity
[8] = Thermodynamic equilibrium solubility in water by HPLC-based shake flask method; assay type: physicochemical; conditions: read-out: Therm_solubility
[9] = Half life in human hepatocytes by LC-MS/MS analysis; assay type: ADME, cell-based, Hepatocyte
[10] = Clearance in Sprague-Dawley rat at 2 mg/kg, iv by LC-MS/MS analysis; assay type: ADME, organism-based; conditions: in vivo
[11] = Tmax in Sprague-Dawley rat at 10 mg/kg, po by LC-MS/MS analysis; assay type: ADME, organism-based; conditions: in vivo
[12] = Toxicity in ICR mouse assessed as weight loss at 500 mg/kg, po administered as single dose measured for 7 days; assay type: organism-based; conditions: in vivo, 168 h

SMILES: CC(=O)Nc1cccc(Nc2nc(Nc3ccc(N4CCN(C)CC4)cn3)ncc2Cl)c1
- Activity (MDA-MB-231 [1]): 14.36%
- Activity (MDA-MB-231 [2]): 15.23%
- viability at 4 µM (MDA-MB-231 [3]): 94.2%
- Activity (MDA-MB-231 [4]): 0.57%
- Activity (MDA-MB-231 [5]): 6.72%
- Activity (MDA-MB-231 [6]): 0.766%
- viability at 12 µM (MDA-MB-231 [7]): 54.9%
- solubility thermodynamic [8]: 340 µg/mL (≈ 751 µM)
- half-life [9]: 1.53 h
- clearance [10]: 52.2 mL/min/kg
- Tmax [11]: 4 h
- Activity [12]: Non-Toxic
